What all share (assay type): cell-based, Streptococcus mutans
Test [1] has as its system S. mutans UA159. In words: S. mutans growth in 96-well microtiter plate (OD 600 nm). The settings on record: 24 h, E2 20 μg/ml, combination of both. Here is the method: (§1) Streptococcus mutans UA159 strain was used in these Examples. S. mutans strain UA159 was grown in Todd-Hewitt broth containing 0.3% yeast extract (THYE) at pH 7.0 and was subcultured routinely on THYE agar plates and incubated at 37° C. in an anaerobic chamber (5% CO2). In liquid media, cultures were incubated in closed screw-cap tubes without agitation at 37° C. in an anaerobic chamber (5% CO2)
(§2) Wells without cells were used as blank controls.
(§3) The microtiter plates were then incubated at 37° C. in an anaerobic chamber (5% CO2) for 24 hours without agitation. After the incubation, the growth was measured at 600 nm with a microplate reader. The planktonic cells were carefully removed, and plates were air dried overnight. The plates were then stained with 0.4% crystal violet for 10 minutes, rinsed with sterile distilled water and air dried for 15 minutes. Biofilm was quantified by measuring the absorbance of stained biofilm at 630 nm with a microplate reader.

Test [2] concerns S. mutans UA159. In words: S. mutans biofilm formation, crystal violet staining (OD 630 nm). The settings on record: 24 h, E2 20 μg/ml, combination of both. Here is the method: as §1, §2, §3
The test system of test [3] is biofilm-embedded S. mutans. In words: Survival of biofilm-embedded S. mutans (CFU counts), E2 peptide compositions, 12-well plates. As to conditions: 20 h biofilm, E2 20 μg/ml, combination of both. Here is the method: as §1
(§4) Biofilms were developed on 12-well polystyrene microtiter plates to provide a rapid and simple method for assaying biofilm-embedded live oral bacteria (e.g. S. mutans). A 4× diluted THYE medium supplemented with final concentration of 0.01% hog gastric mucin (Sigma, St. Louis, Mo.) was used as biofilm medium (BM). Formation of biofilms was initiated by inoculating 20 μl of S. mutans cell suspension (1.2×10^7 CFU/ml) into each well containing 2 ml of BM and four wells were set up: two for control and two for treatment with compositions comprising synthetic E2 peptide and Nisin or E2 and CHX. After cultures were incubated at 37° C. for 20 hours under an anaerobic condition, fluid medium was removed. The wells were rinsed once with 10 mM PBS buffer (pH 7.2) and biofilm-embedded cells were collected in two ml PBS buffer, gently sonicated for 15 seconds, serially diluted, spread on THYE plates, and incubated at 37° C. under anaerobic conditions. Biofilm-embedded viable cells were quantified by colony forming unit (CFU) counts after 48 hours of incubation.

The subject of test [4] is biofilm-embedded S. mutans. The experiment in a line: Survival of biofilm-embedded S. mutans (CFU counts), CSP compositions, 12-well plates. As to conditions: 20 h biofilm, combination of both. Here is the method:
as §1
as §4, with “developed in” for “developed on”, “mucin (Sigma)” for “mucin (Sigma, St. Louis, Mo.)”, “(BM). Fonnation” for “(BM). Formation”, “synthetic CSP” for “synthetic E2 peptide”, “or chlorhexidine or xylitol or triclosan or citric acid or zinc citrate or sodium fluoride or oleanolic acid or lansoprazole or epigallocatechin gallate or chitosan.” for “or E2 and CHX.”, “fluid media were” for “fluid medium was”

In test [5] the test system is biofilm-embedded S. mutans. The experiment in a line: Survival of biofilm-embedded S. mutans (CFU counts), E2 peptide compositions, 12-well plates. As to conditions: 20 h biofilm, E2 20 μg/ml, combination of both. The source holds these as a separate data set.
Where [6] appears, read: chlorhexidine 0.15 μg/ml, control 1.4.
[7] abbreviates: CSP 40 μg/ml, chlorhexidine 0.15 μg/ml, control 1.4 × 10^6.
The mark [8] stands for this setting: CSP 40 μg/ml, oleanolic acid 250 μg/ml, control 4 × 10^5.
[9] abbreviates: xylitol 15.2 mg/ml, control 0.37.
Where [10] appears, read: xylitol 15.2 mg/ml, control 0.78.
Where [11] appears, read: sodium fluoride 600 μg/ml, control 0.40.
[12] abbreviates: sodium fluoride 600 μg/ml, control 0.93.
The mark [13] stands for this setting: CSP 40 μg/ml, sodium fluoride 250 μg/ml, control 2.6 × 10^5.
[14] abbreviates: sodium fluoride 800 μg/ml, control 2.9.
Setting [15] is: lansoprazole 0.1 mM, control 0.38.
The mark [16] stands for this setting: lansoprazole 0.1 mM, control 1.32.
[17] abbreviates: CSP 40 μg/ml, lansoprazole 37 μg/ml, control 1.2 × 10^6.
[18] abbreviates: lansoprazole 37 μg/ml, control 8.
[19] abbreviates: CSP 40 μg/ml, citric acid 1200 μg/ml, control 3.4 × 10^5.
Where [20] appears, read: CSP 40 μg/ml, triclosan 500 μg/ml, control 6.8 × 10^5.
Setting [21] is: CSP 40 μg/ml, zinc citrate 1200 μg/ml, control 8 × 10^5.
[22] abbreviates: CSP 50 μg/ml, nisin 80 μg/ml, control 1.6 × 10^6.
Where [23] appears, read: citric acid 1.2 mg/ml, control 0.34.
The mark [24] stands for this setting: triclosan 25 μg/ml, control 0.33.
Setting [25] is: citric acid 1.2 mg/ml, control 1.23.
[26] abbreviates: triclosan 25 μg/ml, control 1.58.
Setting [27] is: citric acid 1200 μg/ml, control 1.7.

Experimental findings from patent US20070178054A1, “ORAL ANTIMICROBIAL COMPOSITION” (priority 2005, published 2007) are described below.

In the case of `[H]/N=C(\N/C(=N/[H])NCCCCCCNC(=N)NC(=N)Nc1ccc(Cl)cc1)Nc1ccc(Cl)cc1` [CHX, Chlorhexidine, reference compound], the “Growth (OD @ 600 nm)” value in test [1] (CHX 0.154 μg/ml, control 0.39) came to 0.39 OD. For the same compound, in test [2] (CHX 0.154 μg/ml, control 0.88), the “Biofilm (OD @ 630 nm)” value stood at 1.00 OD. Besides, the “CFU × 10^6” value in test [3] (setting [6]) worked out at 1.9 CFU × 10^6. Besides, the CPU in test [4] (setting [7]) is 2 × 10^6 CFU.

Take `CC1(C)CC[C@]2(C(=O)O)CC[C@]3(C)C(=CC[C@@H]4[C@@]5(C)CC[C@H](O)C(C)(C)[C@@H]5CC[C@]43C)[C@@H]2C1` [OA, Oleanolic acid]: the “Growth (OD @ 600 nm)” value in test [1] (OA 2 μg/ml, control 0.4) is given as 0.32 OD. Besides, the “Biofilm (OD @ 630 nm)” value in test [2] (OA 2 μg/ml, control 0.8) came out at 0.94 OD. Also, in test [4] (setting [8]), the CPU is 1.7 × 10^5 CFU.

For the compound `OC[C@@H](O)[C@H](O)[C@@H](O)CO` [Xylitol, xylitol], in test [1] (setting [9]), the “Growth (OD @ 600 nm)” value was 0.07 OD. The “Biofilm (OD @ 630 nm)” value in test [2] (setting [10]) was 0.32 OD.

For the compound `O=C(O[C@@H]1Cc2c(O)cc(O)cc2O[C@@H]1c1cc(O)c(O)c(O)c1)c1cc(O)c(O)c(O)c1` [EGCg, Epigallocatechin gallate], the “Growth (OD @ 600 nm)” value in test [1] (EGCg 150 μg/ml, control 0.32) came out at 0.08 OD. For the same compound, the “Biofilm (OD @ 630 nm)” value in test [2] (EGCg 150 μg/ml, control 1.52) turned out to be 0.41 OD.

For `[F-].[Na+]` [Sodium fluoride, sodium fluoride, reference compound], the “Growth (OD @ 600 nm)” value in test [1] (setting [11]) worked out at 0.02 OD. The “Biofilm (OD @ 630 nm)” value in test [2] (setting [12]) worked out at 0.12 OD. Besides, in test [4] (setting [13]), the CPU was 7 × 10^5 CFU. For the same compound, the “CFU × 10^6” value in test [5] (setting [14]) is recorded as 2.7 CFU × 10^6.

For the compound `Cc1c(OCC(F)(F)F)ccnc1C[S+]([O-])c1nc2ccccc2[nH]1` (stereo not drawn) [Lansoprazole, lansoprazole, reference compound], in test [1] (setting [15]), the “Growth (OD @ 600 nm)” value is 0.4 OD. Moreover, the “Biofilm (OD @ 630 nm)” value in test [2] (setting [16]) is 1.35 OD. Also, the CPU in test [4] (setting [17]) was 1 × 10^6 CFU. Also, in test [5] (setting [18]), the “CFU × 10^6” value amounted to 6.2 CFU × 10^6.

On to “SGSLSTFFRLFNRSFTQALGK (Streptococcus mutans) [CSP]”, for which the CPU is recorded as 2.2 × 10^5 CFU in test [4] (CSP 40 μg/ml, chitosan 0.25 μg/ml, control 7.6 × 10^5); 0.1 × 10^6 CFU in test [4] (setting [7]); 2 × 10^4 CFU in test [4] (setting [19]); 1.4 × 10^6 CFU in test [4] (setting [17]); 2 × 10^4 CFU in test [4] (setting [8]); 1.7 × 10^5 CFU in test [4] (setting [13]). Besides, the results for the CPU in test [4] (setting [20]), in test [4] (setting [21]) and in test [4] (setting [22]) were 7 × 10^4 CFU, 0.5 × 10^5 CFU and 1 × 10^6 CFU, respectively.

In the case of “SGSLSTFFRLFNASFTQALGK (Synthetic E2) [Peptide E2, second arginine from the C' terminus substituted with alanine]”, the “Growth (OD @ 600 nm)” value in test [1] (CHX 0.154 μg/ml, control 0.39) was determined as 0.11 OD; in test [1] (EGCg 150 μg/ml, control 0.32), 0.22 OD; in test [1] (OA 2 μg/ml, control 0.4), 0.26 OD; in test [1] (chitosan 1 μg/ml, control 0.37), 0.28 OD; in test [1] (setting [23]), 0.26 OD; in test [1] (setting [15]), 0.2 OD. In addition, the “Growth (OD @ 600 nm)” value amounted to 0.11 OD in test [1] (nisin 80 μg/ml, control 0.36); 0.23 OD in test [1] (setting [11]); 0.12 OD in test [1] (setting [24]); 0.12 OD in test [1] (setting [9]). The “Biofilm (OD @ 630 nm)” value in test [2] (CHX 0.154 μg/ml, control 0.88) is 0.34 OD; in test [2] (EGCg 150 μg/ml, control 1.52), 0.92 OD; in test [2] (OA 2 μg/ml, control 0.8), 0.33 OD; in test [2] (chitosan 1 μg/ml, control 2.10) it was 1.18 OD; in test [2] (setting [25]), 0.54 OD; in test [2] (setting [16]) it was 0.4 OD. Also, the “Biofilm (OD @ 630 nm)” value in test [2] (nisin 80 μg/ml, control 1.03) worked out at 0.24 OD; in test [2] (setting [12]) it was 0.16 OD; in test [2] (setting [26]), 1.00 OD; in test [2] (setting [10]), 0.34 OD. Moreover, the “CFU × 10^6” value is given as 0.9 CFU × 10^6 in test [3] (setting [6]); 2.5 CFU × 10^6 in test [3] (nisin 80 μg/ml, control 2.8); 0.1 CFU × 10^6 in test [5] (chitosan 1 μg/ml, control 1.4); 0.6 CFU × 10^6 in test [5] (setting [27]); 4.3 CFU × 10^6 in test [5] (setting [18]); 1 CFU × 10^6 in test [5] (setting [14]).

`O=C(O)CC(O)(CC(=O)O)C(=O)O` [Citric acid, citric acid]: the “Growth (OD @ 600 nm)” value in test [1] (setting [23]) was 0.02 OD. Also, the “Biofilm (OD @ 630 nm)” value in test [2] (setting [25]) is 0.38 OD. The CPU in test [4] (setting [19]) was 8 × 10^4 CFU. In addition, in test [5] (setting [27]), the “CFU × 10^6” value came out at 0.05 CFU × 10^6.

As for nisin, in test [1] (nisin 80 μg/ml, control 0.36), the “Growth (OD @ 600 nm)” value was found to be 0.23 OD. In test [2] (nisin 80 μg/ml, control 1.03), the “Biofilm (OD @ 630 nm)” value worked out at 0.6 OD. For the same compound, in test [3] (nisin 80 μg/ml, control 2.8), the “CFU × 10^6” value was 3.0 CFU × 10^6. In addition, in test [4] (setting [22]), the CPU is given as 1 × 10^6 CFU.

Take `Oc1cc(Cl)ccc1Oc1ccc(Cl)cc1Cl` [Triclosan, triclosan, reference compound]: the “Growth (OD @ 600 nm)” value in test [1] (setting [24]) turned out to be 0.33 OD. Besides, the “Biofilm (OD @ 630 nm)” value in test [2] (setting [26]) stood at 1.69 OD. For the same compound, the CPU in test [4] (setting [20]) is 7 × 10^2 CFU.

Regarding `O=C([O-])CC(O)(CC(=O)[O-])C(=O)[O-].O=C([O-])CC(O)(CC(=O)[O-])C(=O)[O-].[Zn+2].[Zn+2].[Zn+2]` [Zinc citrate, zinc citrate], the CPU in test [4] (setting [21]) was 0.8 × 10^5 CFU.
